Laboratory results as given in patent US20070128217A1 (priority 2003, published 2007).

What was measured:
[1] = test system: antibodies in sera from SARS patients (sera 1a, 1b, 2, 6, 37, 62, London, SARS-yellow, SARS-green); assay type: binding, human; design: Binding of serum 6 to linear peptides of protein X1 of SARS-CoV Urbani / Binding of serum 37 to linear peptides of protein X1 of SARS-CoV Urbani / Binding of serum 6 to looped/cyclic peptide (PEPSCAN-ELISA) / Binding of serum 37 to looped/cyclic peptide (PEPSCAN-ELISA) / Binding of serum 37 to looped/cyclic peptides of protein X1 of SARS-CoV Urbani / Binding of serum 6 to linear peptides of protein X2 / Binding of serum 37 to linear peptides of protein X2 / Binding of serum 37 to looped/cyclic peptides of protein X2 of SARS-CoV Urbani / Binding of serum 6 to linear peptides of protein M of SARS-CoV Urbani / Binding of serum 37 to linear peptides of protein M of SARS-CoV Urbani / Binding of serum 6 to looped/cyclic peptides of protein M of SARS-CoV Urbani / Binding of serum 37 to looped/cyclic peptides of protein M of SARS-CoV Urbani / Binding of serum 6 to linear peptides of protein X3 of SARS-CoV Urbani / Binding of serum 37 to linear peptides of protein X3 of SARS-CoV Urbani / Binding of serum 37 to looped/cyclic peptides of protein X3 of SARS-CoV Urbani / Binding of serum 6 to linear peptides of protein X4 of SARS-CoV Urbani / Binding of serum 37 to linear peptides of protein X4 of SARS-CoV Urbani / Binding of serum 37 to looped/cyclic peptides of protein X4 of SARS-CoV Urbani / Binding of serum 6 to linear peptides of protein X5 of SARS-CoV Urbani / Binding of serum 37 to linear peptides of protein X5 of SARS-CoV Urbani / Binding of serum 37 to looped/cyclic peptides of protein X5 of SARS-CoV Urbani / Binding of serum 6 to linear peptides of protein N of SARS-CoV Urbani / Binding of serum 37 to linear peptides of protein N of SARS-CoV Urbani / Binding of serum 6 to linear peptide (PEPSCAN-ELISA) / Binding of serum 1a to looped/cyclic peptides of protein N of SARS-CoV Urbani / Binding of serum 1b to looped/cyclic peptides of protein N of SARS-CoV Urbani / Binding of serum 2 to looped/cyclic peptides of protein N of SARS-CoV Urbani / Binding of serum 6 to looped/cyclic peptides of protein N of SARS-CoV Urbani / Binding of serum 37 to looped/cyclic peptides of protein N of SARS-CoV Urbani / Binding of serum 62 to looped/cyclic peptides of protein N of SARS-CoV Urbani / Binding of serum London to looped/cyclic peptides of protein N of SARS-CoV Urbani / Binding of serum SARS-green to looped/cyclic peptides of protein N of SARS-CoV Urbani: unit not given here
[2] = test system: recombinant human anti-SARS-CoV antibody 03-018; assay type: binding; design: Binding of antibody 03-018 to linear peptides of the N protein of SARS-CoV Urbani / Binding of antibody 03-018 to looped/cyclic peptides of the N protein of SARS-CoV Urbani: unit not given here
[3] = test system: rabbit serum obtained by immunizing a rabbit with the SARS-CoV strain Frankfurt 1; assay type: binding; design: Binding of a rabbit serum to linear peptides / Binding of a rabbit serum to looped peptides / Rabbit serum linear peptides / Rabbit serum looped peptides / Binding of a rabbit serum to linear peptides of protein N of SARS-CoV Urbani (Rabbit serum linear peptides) / Binding of a rabbit serum to looped/cyclic peptides of protein N of SARS-CoV Urbani (Rabbit serum looped peptides): unit not given here
[4] = test system: control sera (pooled serum of ten healthy LUMC hospital workers; commercial negative donor pooled serum from the Dutch bloodbank); assay type: binding, human; design: Binding of Control serum LUMC to linear peptides / Binding of Control serum Blood-bank to linear peptides / Binding of Control serum LUMC to looped peptides / Binding of Control Serum Blood-Bank to Looped peptides / Binding of Control serum LUMC to linear peptides of the protein M of SARS-CoV Urbani / Binding of Control serum Blood-bank to linear peptides of the protein M of SARS-CoV Urbani / Binding of Control serum LUMC to looped peptides of the protein M of SARS-CoV Urbani / Binding of Control Serum Blood-Bank to Looped peptides of the protein M of SARS-CoV Urbani: unit not given here

Sequence | Binding of serum 1a to linear peptides of protein N of SARS-CoV Urbani [1] | Binding of serum 1a to looped/cyclic peptides of protein N of SARS-CoV Urbani [1] | Binding of serum 1b to linear peptides of protein N of SARS-CoV Urbani [1] | Binding of serum 1b to looped/cyclic peptides of protein N of SARS-CoV Urbani [1] | Binding of serum 2 to linear peptides of protein N of SARS-CoV Urbani [1] | Binding of serum 2 to looped/cyclic peptides of protein N of SARS-CoV Urbani [1] | Binding of serum 6 to linear peptides of protein N of SARS-CoV Urbani [1] | Binding of serum 6 to looped/cyclic peptides of protein N of SARS-CoV Urbani [1] | Binding of serum 37 to linear peptides of protein N of SARS-CoV Urbani [1] | Binding of serum 37 to looped/cyclic peptides of protein N of SARS-CoV Urbani [1] | Binding of serum 62 to linear peptides of protein N of SARS-CoV Urbani [1] | Binding of serum 62 to looped/cyclic peptides of protein N of SARS-CoV Urbani [1] | Binding of serum London to linear peptides of protein N of SARS-CoV Urbani [1] | Binding of serum London to looped/cyclic peptides of protein N of SARS-CoV Urbani [1] | Binding of serum SARS-green to looped/cyclic peptides of protein N of SARS-CoV Urbani [1] | Binding of serum SARS-yellow to looped/cyclic peptides of protein N of SARS-CoV Urbani [1] | Binding of antibody 03-018 to linear peptides of the N protein of SARS-CoV Urbani [2] | Binding of antibody 03-018 to looped/cyclic peptides of the N protein of SARS-CoV Urbani [2] | Binding of a rabbit serum to linear peptides of protein N of SARS-CoV Urbani (Rabbit serum linear peptides) [3] | Binding of a rabbit serum to looped/cyclic peptides of protein N of SARS-CoV Urbani (Rabbit serum looped peptides) [3] | other results
PTDSTDNNQNGGRNG | 0.3 | 0.3 | 0.2 | 0.2 | 0.3 | 0.3 | 0.2 | 0.2 | 1.2 | 0.5 | 0.8 | 0.3 | 0.7 | 0.4 | 0.4 | 0.5 | 0.1 | 0.2 | 0.1 | 0.1 | Binding of serum SARS-green to linear peptides of protein N of SARS-CoV Urbani [1]: 0.6; Binding of serum SARS-yellow to linear peptides of protein N of SARS-CoV Urbani [1]: 0.7; Binding of Control Serum Blood-Bank to Looped peptides [4]: 0.5; Binding of Control serum Blood-bank to linear peptides [4]: 1.0; Binding of Control serum LUMC to linear peptides [4]: 0.8; Binding of Control serum LUMC to looped peptides [4]: 0.4
PTEPKKDKKKKTDEA | 0.2 | 0.2 | 0.1 | 0.1 | 2.0 | 0.3 | 0.2 | 0.1 | 0.6 | 0.3 | 0.7 | 0.3 | 0.5 | 0.3 | 0.0 | 0.2 | 0.1 | 0.2 | 0.1 | 0.2 | Binding of serum SARS-green to linear peptides of protein N of SARS-CoV Urbani [1]: 0.2; Binding of serum SARS-yellow to linear peptides of protein N of SARS-CoV Urbani [1]: 0.5; Control Serum Blood-Bank Looped peptides [4]: 0.4; Control serum Blood-bank linear peptides [4]: 0.6; Control serum LUMC linear peptides [4]: 0.6; Control serum LUMC looped peptides [4]: 0.3
PTVTLLPAADMDDFS | 0.3 | 0.2 | 0.2 | 0.2 | 0.2 | 0.3 | 0.1 | 0.1 | 1.4 | 0.4 | 0.9 | 0.2 | 0.6 | 0.2 | 0.7 | 0.1 | 0.1 | 0.2 | 0.1 | 0.0 | Binding of serum SARS-green to linear peptides of protein N of SARS-CoV Urbani [1]: 1.9; Binding of serum SARS-yellow to linear peptides of protein N of SARS-CoV Urbani [1]: 0.7; Control Serum Blood-Bank Looped peptides [4]: 0.3; Control serum Blood-bank linear peptides [4]: 0.8; Control serum LUMC linear peptides [4]: 0.7; Control serum LUMC looped peptides [4]: 0.3
QASSRSSSRSRGNSR | – | 0.3 | – | 0.2 | – | 0.4 | – | 0.3 | – | 0.5 | – | 0.4 | – | 0.4 | 0.1 | 0.4 | 0.1 | 0.2 | 0.3 | 1.1 | Binding of serum 1a to linear peptide (PEPSCAN-ELISA) [1]: 0.2; Binding of serum 1b to linear peptide (PEPSCAN-ELISA) [1]: 0.1; Binding of serum 2 to linear peptide (PEPSCAN-ELISA) [1]: 0.3; Binding of serum 6 to linear peptide (PEPSCAN-ELISA) [1]: 0.3; Binding of serum 37 to linear peptide (PEPSCAN-ELISA) [1]: 0.6; Binding of serum 62 to linear peptide (PEPSCAN-ELISA) [1]: 0.6; Binding of serum London to linear peptide (PEPSCAN-ELISA) [1]: 0.5; Binding of serum SARS-green to linear peptide (PEPSCAN-ELISA) [1]: 0.2; Binding of serum SARS-yellow to linear peptide (PEPSCAN-ELISA) [1]: 0.6; Binding of Control Serum Blood-Bank to Looped peptides [4]: 0.5; Binding of Control serum Blood-bank to linear peptides [4]: 0.7; Binding of Control serum LUMC to linear peptides [4]: 0.7; Binding of Control serum LUMC to looped peptides [4]: 0.5
